Literature values in US11478524B1, “Methods and compositions for modulating complex mixtures by selective deletion chromatography” (UNIVERSITY OF SOUTH FLORIDA, priority 2017, dated 2022).
Where two headings read alike, the source gives them in different places.

For Epigallocatechin-3-gallate [EGCG], the lifespan extension (under heat stress) is listed as 13%, the effect on longevity (under normal conditions) is listed as “little effect” and the lifespan extension (under oxidative stress) is listed as 178%.
